Test results reported in patent publication US10435405B2, “Pyrazolopyridine compounds and uses thereof” (Incyte Corporation, priority 2016, dated 2019).

Target: HPK1 (Homo sapiens (Human), UniProt Q92918)
Assay: HPK1 Kinase Binding Assay
Method: A stock solution of 1 mM test compound was prepared in DMSO. The compound plate was prepared by 3-fold and 11-point serial dilutions. 0.1 μL of the compound in DMSO was transferred from the compound plate to the white 384 well polystyrene plates. The assay buffer contained 50 mM HEPES, pH 7.5, 0.01% Tween-20, 5 mM MgCl2, 0.01% BSA, and 5 mM DTT. 5 μl of 4 nM active HPK1 (SignalChem M23-11G) prepared in the buffer was added to the plate. The enzyme concentration given was based on the given stock concentration reported by the vender. 5 μl of 18 nM tracer 222 (ThermoFisher PV6121) and 4 nM LanthaScreen Eu-Anti GST antibody (ThermoFisher PV5595) were added. After one hour incubation at 25° C., the plates were read on a PHERAstar FS plate reader (BMG Labtech). Ki values were determined.

Chain of HPK1 (Q92918 1-346): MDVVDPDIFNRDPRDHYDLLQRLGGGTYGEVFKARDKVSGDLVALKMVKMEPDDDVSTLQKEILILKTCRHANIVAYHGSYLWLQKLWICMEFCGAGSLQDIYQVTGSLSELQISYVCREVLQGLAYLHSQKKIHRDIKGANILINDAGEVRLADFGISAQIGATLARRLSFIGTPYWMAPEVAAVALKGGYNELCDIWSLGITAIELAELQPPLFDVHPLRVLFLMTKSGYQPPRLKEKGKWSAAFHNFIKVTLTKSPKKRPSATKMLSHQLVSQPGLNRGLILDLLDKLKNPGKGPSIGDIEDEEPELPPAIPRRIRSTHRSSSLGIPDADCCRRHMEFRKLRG

**Q.** Which Ki does the source give for `COc1cccc(F)c1-c1cc2c(NC(=O)c3cccc(N4CCN(CC(F)(F)F)C(=O)C4)c3)n[nH]c2cn1` [Example 21, N-(5-(2-Fluoro-6-methoxyphenyl)-1H-pyrazolo[3,4-c]pyridin-3-yl)-3-(3-oxo-4-(2,2,2-trifluoroethyl)piperazin-1-yl)benzamide] here?
**A.** ≤ 100 nM

**Q.** For `COc1cccc(F)c1-c1cc2c(NC(=O)c3cccc(N4CCN(S(C)(=O)=O)CC4)c3)n[nH]c2cn1` [Example 22, N-(5-(2-Fluoro-6-methoxyphenyl)-1H-pyrazolo[3,4-c]pyridin-3-yl)-3-(4-(methylsulfonyl)piperazin-1-yl)benzamide], which Ki is on record?
**A.** ≤ 100 nM

**Q.** `COc1cccc(F)c1-c1cc2c(NC(=O)c3cccc(N4CCNCC4)c3)n[nH]c2cn1` [Example 23, N-(5-(2-fluoro-6-methoxyphenyl)-1H-pyrazolo[3,4-c]pyridin-3-yl)-3-(piperazin-1-yl)benzamide] was tested. Which Ki did it give?
**A.** ≤ 100 nM

**Q.** With `COc1cccc(F)c1-c1cc2c(NC(=O)c3ccc(N4CCOCC4)cc3)n[nH]c2cn1` [Example 24, N-(5-(2-Fluoro-6-methoxyphenyl)-1H-pyrazolo[3,4-c]pyridin-3-yl)-4-morpholinobenzamide] as the compound, how does the Ki read?
**A.** ≤ 100 nM

**Q.** With `COc1cccc(F)c1-c1cc2c(NC(=O)c3ccc(N4CCNC(=O)C4)cc3)n[nH]c2cn1` [Example 25, N-(5-(2-Fluoro-6-methoxyphenyl)-1H-pyrazolo[3,4-c]pyridin-3-yl)-4-(3-oxopiperazin-1-yl)benzamide] as the compound, how does the Ki read?
**A.** ≤ 100 nM

**Q.** For `COc1cccc(F)c1-c1cc2c(NC(=O)c3ccc(N4CCN(C)CC4)cc3)n[nH]c2cn1` [Example 26, N-(5-(2-Fluoro-6-methoxyphenyl)-1H-pyrazolo[3,4-c]pyridin-3-yl)-4-(4-methylpiperazin-1-yl)benzamide], which Ki is on record?
**A.** ≤ 100 nM

**Q.** For `COc1cccc(F)c1-c1cc2c(NC(=O)c3ccc(N4CCN(C)C(=O)C4)cc3)n[nH]c2cn1` [Example 27, N-(5-(2-fluoro-6-methoxyphenyl)-1H-pyrazolo[3,4-c]pyridin-3-yl)-4-(4-methyl-3-oxopiperazin-1-yl)benzamide], which Ki is on record?
**A.** ≤ 100 nM

**Q.** For `CCN1CCN(c2ccc(C(=O)Nc3n[nH]c4cnc(-c5c(F)cccc5OC)cc34)cc2)CC1` [Example 28, 4-(4-Ethylpiperazin-1-yl)-N-(5-(2-fluoro-6-methoxyphenyl)-1H-pyrazolo[3,4-c]pyridin-3-yl)benzamide], which Ki is on record?
**A.** ≤ 100 nM

**Q.** Which Ki does the source give for `COc1cccc(F)c1-c1cc2c(NC(=O)c3ccc(N4CCN(CC(F)(F)F)C(=O)C4)cc3)n[nH]c2cn1` [Example 29, N-(5-(2-Fluoro-6-methoxyphenyl)-1H-pyrazolo[3,4-c]pyridin-3-yl)-4-(3-oxo-4-(2,2,2-trifluoroethyl)piperazin-1-yl)benzamide] here?
**A.** ≤ 100 nM

**Q.** `COc1cccc(F)c1-c1cc2c(NC(=O)c3ccc(N4CCN(C(C)C)CC4)cc3)n[nH]c2cn1` [Example 30, N-(5-(2-Fluoro-6-methoxyphenyl)-1H-pyrazolo[3,4-c]pyridin-3-yl)-4-(4-isopropylpiperazin-1-yl)benzamide] was tested. Which Ki did it give?
**A.** ≤ 100 nM

**Q.** For `COc1cccc(F)c1-c1cc2c(NC(=O)c3ccc(N4CCN(C5CC5)C(=O)C4)cc3)n[nH]c2cn1` [Example 31, 4-(4-Cyclopropyl-3-oxopiperazin-1-yl)-N-(5-(2-fluoro-6-methoxyphenyl)-1H-pyrazolo[3,4-c]pyridin-3-yl)benzamide], which Ki is on record?
**A.** ≤ 100 nM

**Q.** Which Ki does the source give for `COc1cccc(F)c1-c1cc2c(NC(=O)c3ccc(N4CCN(S(C)(=O)=O)CC4)cc3)n[nH]c2cn1` [Example 32, N-(5-(2-Fluoro-6-methoxyphenyl)-1H-pyrazolo[3,4-c]pyridin-3-yl)-4-(4-(methylsulfonyl)piperazin-1-yl)benzamide] here?
**A.** ≤ 100 nM

**Q.** How did the Ki turn out when `COc1cccc(F)c1-c1cc2c(NC(=O)c3ccc(N4CCNCC4)cc3)n[nH]c2cn1` [Example 33, N-(5-(2-Fluoro-6-methoxyphenyl)-1H-pyrazolo[3,4-c]pyridin-3-yl)-4-(piperazin-1-yl)benzamide] was run?
**A.** ≤ 100 nM

**Q.** `COc1cccc(F)c1-c1cc2c(-c3cnc(N4CCOCC4)s3)n[nH]c2cn1` [Example 34, 4-(5-(5-(2-Fluoro-6-methoxyphenyl)-1H-pyrazolo[3,4-c]pyridin-3-yl)thiazol-2-yl)morpholine] was tested. Which Ki did it give?
**A.** ≤ 100 nM

**Q.** Which Ki does the source give for `COc1cccc(F)c1-c1cc2c(-c3cc(C)no3)n[nH]c2cn1` [Example 35, 5-(5-(2-Fluoro-6-methoxyphenyl)-1H-pyrazolo[3,4-c]pyridin-3-yl)-3-methylisoxazole] here?
**A.** ≤ 100 nM

**Q.** For `COc1cccc(F)c1-c1cc2c(-c3cnc(C)s3)n[nH]c2cn1` [Example 36, 5-(5-(2-Fluoro-6-methoxyphenyl)-1H-pyrazolo[3,4-c]pyridin-3-yl)-2-methylthiazole], which Ki is on record?
**A.** ≤ 100 nM

**Q.** `COc1cccc(F)c1-c1cc2c(N3CCN(c4ccc(Br)cc4)C(=O)C3)n[nH]c2cn1` [Example 37, 1-(4-Bromophenyl)-4-(5-(2-fluoro-6-methoxyphenyl)-1H-pyrazolo[3,4-c]pyridin-3-yl)piperazin-2-one] was tested. Which Ki did it give?
**A.** ≤ 100 nM

**Q.** For `COc1cccc(F)c1-c1cc2c(N3CCc4ccc(C#N)cc4C3)n[nH]c2cn1` [Example 38, 2-(5-(2-Fluoro-6-methoxyphenyl)-1H-pyrazolo[3,4-c]pyridin-3-yl)-1,2,3,4-tetrahydroisoquinoline-7-carbonitrile], which Ki is on record?
**A.** ≤ 100 nM

**Q.** Which Ki does the source give for `COc1cccc(F)c1-c1cc2c(N3CCN(c4ccc(C#N)cc4)CC3)n[nH]c2cn1` [Example 39, 4-(4-(5-(2-Fluoro-6-methoxyphenyl)-1H-pyrazolo[3,4-c]pyridin-3-yl)piperazin-1-yl)benzonitrile] here?
**A.** ≤ 100 nM

**Q.** For `COc1cccc(F)c1-c1cc2c(N3CCN(c4ccncc4)CC3)n[nH]c2cn1` [Example 40, 5-(2-Fluoro-6-methoxyphenyl)-3-(4-(pyridin-4-yl)piperazin-1-yl)-1H-pyrazolo[3,4-c]pyridine], which Ki is on record?
**A.** ≤ 100 nM

**Q.** For `COc1cccc(F)c1-c1cc2c(NCc3ccc(N4CCN(C)CC4)cc3)n[nH]c2cn1` [Example 41, 5-(2-Fluoro-6-methoxyphenyl)-N-(4-(4-methylpiperazin-1-yl)benzyl)-1H-pyrazolo[3,4-c]pyridin-3-amine], which Ki is on record?
**A.** 500 to 2000 nM

**Q.** With `CN1CCN(c2ccc(-c3n[nH]c4cnc(-c5cc(F)cc(C6(CN)CC6)c5)cc34)cc2)CC1` [Example 42, 1-[1-(3-Fluoro-5-{3-[4-(4-methylpiperazin-1-yl)phenyl]-1H-pyrazolo[3,4-c]pyridin-5-yl}phenyl)cyclopropyl]methanamine] as the compound, how does the Ki read?
**A.** ≤ 100 nM

**Q.** `COc1cccc(F)c1-c1cc2c(-c3ccc(N4CCN(C)CC4)cc3)n[nH]c2cn1` [Example 43, 5-(2-Fluoro-6-methoxyphenyl)-3-(4-(4-methylpiperazin-1-yl)phenyl)-1H-pyrazolo[3,4-c]pyridine] was tested. Which Ki did it give?
**A.** ≤ 100 nM

**Q.** How did the Ki turn out when `CN1CCN(c2ccc(-c3n[nH]c4cnc(-c5c(F)cccc5F)cc34)cc2)CC1` [Example 44, 5-(2,6-Difluorophenyl)-3-(4-(4-methylpiperazin-1-yl)phenyl)-1H-pyrazolo[3,4-c]pyridine] was run?
**A.** ≤ 100 nM

**Q.** For `Cc1cccc(C)c1-c1cc2c(-c3ccc(N4CCN(C)CC4)cc3)n[nH]c2cn1` [Example 45, 5-(2,6-Dimethylphenyl)-3-(4-(4-methylpiperazin-1-yl)phenyl)-1H-pyrazolo[3,4-c]pyridine], which Ki is on record?
**A.** ≤ 100 nM

**Q.** Which Ki does the source give for `CN1CCN(c2ccc(-c3n[nH]c4cnc(-c5c(F)cc(F)cc5F)cc34)cc2)CC1` [Example 46, 3-(4-(4-Methylpiperazin-1-yl)phenyl)-5-(2,4,6-trifluorophenyl)-1H-pyrazolo[3,4-c]pyridine] here?
**A.** ≤ 100 nM

**Q.** For `CN1CCN(c2ccc(-c3n[nH]c4cnc(-c5c(F)cccc5Cl)cc34)cc2)CC1` [Example 47, 5-(2-Chloro-6-fluorophenyl)-3-(4-(4-methylpiperazin-1-yl)phenyl)-1H-pyrazolo[3,4-c]pyridine], which Ki is on record?
**A.** ≤ 100 nM

**Q.** How did the Ki turn out when `CN1CCN(c2ccc(-c3n[nH]c4cnc(-c5c(F)cc(O)cc5F)cc34)cc2)CC1` [Example 48, 3,5-Difluoro-4-(3-(4-(4-methylpiperazin-1-yl)phenyl)-1H-pyrazolo[3,4-c]pyridin-5-yl)phenol] was run?
**A.** ≤ 100 nM

**Q.** For `Cc1cccc(F)c1-c1cc2c(-c3ccc(N4CCN(C)CC4)cc3)n[nH]c2cn1` [Example 49, 5-(2-Fluoro-6-methylphenyl)-3-(4-(4-methylpiperazin-1-yl)phenyl)-1H-pyrazolo[3,4-c]pyridine], which Ki is on record?
**A.** ≤ 100 nM

**Q.** `CN1CCN(c2ccc(-c3n[nH]c4cnc(-c5c(Cl)cccc5C(F)(F)F)cc34)cc2)CC1` [Example 50, 5-(2-Chloro-6-(trifluoromethyl)phenyl)-3-(4-(4-methylpiperazin-1-yl)phenyl)-1H-pyrazolo[3,4-c]pyridine] was tested. Which Ki did it give?
**A.** ≤ 100 nM

**Q.** For `CCOc1cccc(F)c1-c1cc2c(-c3ccc(N4CCN(C)CC4)cc3)n[nH]c2cn1` [Example 51, 5-(2-Ethoxy-6-fluorophenyl)-3-(4-(4-methylpiperazin-1-yl)phenyl)-1H-pyrazolo[3,4-c]pyridine], which Ki is on record?
**A.** ≤ 100 nM

**Q.** For `COc1cccc(Cl)c1-c1cc2c(-c3ccc(N4CCN(C)CC4)cc3)n[nH]c2cn1` [Example 52, 5-(2-Chloro-6-methoxyphenyl)-3-(4-(4-methylpiperazin-1-yl)phenyl)-1H-pyrazolo[3,4-c]pyridine], which Ki is on record?
**A.** ≤ 100 nM

**Q.** Which Ki does the source give for `CN1CCN(c2ccc(-c3n[nH]c4cnc(-c5c(F)cccc5C(F)(F)F)cc34)cc2)CC1` [Example 53, 5-(2-Fluoro-6-(trifluoromethyl)phenyl)-3-(4-(4-methylpiperazin-1-yl)phenyl)-1H-pyrazolo[3,4-c]pyridine] here?
**A.** ≤ 100 nM

**Q.** For `COc1cccc(F)c1-c1cc2c(C(=O)Nc3ccc(N4CCN(C)CC4)cc3)n[nH]c2cn1` [Example 54, 5-(2-Fluoro-6-methoxyphenyl)-N-(4-(4-methylpiperazin-1-yl)phenyl)-1H-pyrazolo[3,4-c]pyridine-3-carboxamide], which Ki is on record?
**A.** ≤ 100 nM
